According to US5302586A, “Phosphonomethyl-imidazo[1,2-a]pyrimidine-2-carboxylic acid compounds for treatment of neurotoxic injury” (G. D. Searle & Co., priority 1992, dated 1994):
Blank lines part the entries; values can stand above or below the compound they belong to.

Columns and labels:
NMDA = conditions: CPP binding to rat brain hippocampal tissue, Murphy et al 1987; cited from earlier work
[1] = molecular target: [^3 H]MK-801 binding, rat SPM (NMDA receptor); assay: [^3 H]MK-801 Binding assay (Triton X-100 treated rat synaptic plasma membranes); conditions: 5.0 nM [^3 H]MK-801, L-glutamate 10.0 nM, 25° C., 30 min, pH 7.4
Experimental: Modulation of [^3 H]MK-801 binding was performed using Triton X-100 (0.04% v/v) treated rat SPM that had been extensively washed. Assay incubations were at 25° C. for 30 min. and contained 5.0 nM [^3 H]MK-801, L-glutamate (10.0 nM), and various concentrations of the tested compound of the invention in 50 mM Tris/acetate, pH 7.4. The assay was stopped by rapid filtration, using Brandel MB-48 Harvester, through Whatman GF/B filters treated with 0.05% polyethylenimine and the samples washed four times with 2.0 mL cold buffer. The radioactivity associated with the filter was determined by liquid scintillation spectrometry. Nonspecific binding was defined using 60 μM MK-801. IC50 were determined using a logit-log transformation of the binding data.

[2] = molecular target: NMDA receptor site (NMDA-specific L-[^3 H]glutamate recognition site); assay: NMDA-Selective Glutamate Binding Assay (L-[^3 H]glutamate, synaptic plasma membranes); set-up: species or system rat
Experimental: Synaptic plasma membranes (SPM) were prepared as previously described [Monohan, J. B. and Michel, J., "Identification and Characterization of an N-methyl-D-aspartate-specific L[^3 H]glutamate Recognition Site in Synaptic Plasma Membranes, J. Neurochem., 48, 1699-1708 (1987)]. The SPM were stored at a concentration of 10-15 mg/ml in 0.32M sucrose, 0.5 mM EDTA, 1 mM MgSO4, 5 mM Tris/SO4, pH 7.4, under liquid nitrogen. The identity and purity of the subcellular fractions were confirmed by both electron microscopy and marker enzymes. Protein concentrations were determined by using a modification of the method of Lowry [Ohnishi, S. T. and Barr, J. K., "A Simplified Method of Quantitating Proteins Using the Biuret and Phenol Reagents", Anal. Biochem., 86, 193-197 (1978)]. The SPM were treated identically for the [^3 H]AMPA (QUIS), [^3 H]kainate and sodium-dependent L-[^3 H]-glumatate binding assays. […] Beckman MP scintillation cocktail containing 7 mL/1 acetic acid was then added and the samples counted on a Beckman LS 5800 or 3801 liquid scintillation counter with automatic corrections for quenching and counting efficiency. […] Radioligand binding to the synaptic plasma membranes was analyzed using Scatchard and Hill transformations and the Ki values of the compounds determined using logit-log transformations. […]

SMILES: O=C(O)C1CN(CCCP(=O)(O)O)CCN1 (stereo not shown) [CPP, 3-(2-carboxypiperazin-4-yl)propyl-1-phosphonic acid]
- NMDA antagonist potency and selectivity (NMDA): potent and selective NMDA antagonist

- Ki [1]: 4.6 µM
- Ki ([2]; [^3 H]GLU, Triton X-100 treated SPM, 50 mM Tris/acetate pH 7.4, 0°-4° C., 10 min): 8.8 µM
SMILES: O=C(O)c1cn2c(CP(=O)(O)O)ccnc2n1 [Example 1, 5-Phosphonomethyl-imidazo[1,2-a]pyrimidine-2-carboxylic acid]

- [^3 H]GLU % inhibition ([2]; @ 10 μM): 14%
SMILES: O=C(O)c1cn2ccc(CP(=O)(O)O)nc2n1 [Example 2, 7-phosphonomethyl-imidazo[1,2-a]pyrimidine-2-carboxylic acid]
